ChEMBL document CHEMBL1201862, “PubChem BioAssay data set” (2004)
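Protocol summary: plate cells (96-well), add compound at 5 concentrations, incubate 48 h, interpolate endpoints linearly. GI50 is the concentration that inhibits growth by half.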 The source made the active and inactive calls. Rule as the data show it: active = GI50 up to about 1.1 µM and inactive = higher.

Legend:
Experiment in all cases: NCI anticancer screen, dose series, 48 h
NCI-H460 = tested on: NCI-H460
T47D = tested on: T47D
K562 = tested on: K562
U-251 = tested on: U-251
KM12 = tested on: KM12
A549 = tested on: A549
BT-549 = tested on: BT-549
OVCAR-5 = tested on: OVCAR-5
RPMI-8226 = tested on: RPMI-8226
M14 = tested on: M14
786-0 = tested on: 786-0
SW-620 = tested on: SW-620
HL-60 = tested on: HL-60
SN12C = tested on: SN12C
UACC-257 = tested on: UACC-257
SR = tested on: SR
SF-295 = tested on: SF-295
OVCAR-4 = tested on: OVCAR-4
MDA-MB-231 = tested on: MDA-MB-231
NCI-H522 = tested on: NCI-H522

SMILES	GI50 (NCI-H460)	GI50 (T47D)	GI50 (K562)	GI50 (U-251)	GI50 (KM12)	GI50 (A549)	GI50 (BT-549)	GI50 (OVCAR-5)	GI50 (RPMI-8226)	GI50 (M14)	GI50 (786-0)	GI50 (SW-620)	GI50 (HL-60)	GI50 (SN12C)	GI50 (UACC-257)	GI50 (SR)	GI50 (SF-295)	GI50 (OVCAR-4)	GI50 (MDA-MB-231)	GI50 (NCI-H522)
Nc1cc(N2CCOCC2)nc(=O)n1-c1ccccc1	> 100 µM (inactive)	> 100 µM (inactive)	> 100 µM (inactive)	> 100 µM (inactive)	> 100 µM (inactive)	> 100 µM (inactive)	> 100 µM (inactive)	> 100 µM (inactive)	> 100 µM (inactive)	> 100 µM (inactive)	> 100 µM (inactive)	> 100 µM (inactive)	21.4 µM (inactive)	> 100 µM (inactive)	> 100 µM (inactive)	> 100 µM (inactive)	> 100 µM (inactive)			
CCN(CC)Cc1cc(Nc2c3ccccc3nc3c2[nH]c2ccccc23)cc(CN(CC)CC)c1O	0.294 µM (active)	2.67 µM (inactive)	0.631 µM (active)	0.513 µM (active)	0.552 µM (active)	0.566 µM (active)	1.41 µM (inactive)	2.01 µM (inactive)		0.303 µM (active)	0.216 µM (active)	0.266 µM (active)	2.86 µM (inactive)	0.412 µM (active)	1.42 µM (inactive)		1.28 µM (inactive)	0.468 µM (active)	1.05 µM (active)	0.624 µM (active)
COc1ccc(/C(CCl)=C(\Nc2ccccc2)c2ccc(OC)c(OC)c2)cc1OC	82.6 µM (inactive)	27.7 µM (inactive)	58.3 µM (inactive)	> 100 µM (inactive)	> 100 µM (inactive)	85.7 µM (inactive)	> 100 µM (inactive)	> 100 µM (inactive)	68.2 µM (inactive)	> 100 µM (inactive)	> 100 µM (inactive)	> 100 µM (inactive)	27.2 µM (inactive)	> 100 µM (inactive)	> 100 µM (inactive)		78 µM (inactive)	75.5 µM (inactive)	93.1 µM (inactive)	94 µM (inactive)
CCOC(=O)c1cc2c([N+](=O)[O-])c(N)ccc2s1	> 100 µM (inactive)	> 100 µM (inactive)	> 100 µM (inactive)	> 100 µM (inactive)	> 100 µM (inactive)	> 100 µM (inactive)	> 100 µM (inactive)	> 100 µM (inactive)	> 100 µM (inactive)	> 100 µM (inactive)	> 100 µM (inactive)	> 100 µM (inactive)	> 100 µM (inactive)	> 100 µM (inactive)	> 100 µM (inactive)		> 100 µM (inactive)	> 100 µM (inactive)	> 100 µM (inactive)	> 100 µM (inactive)
COC(=O)c1c(C)cccc1/C=C1/Cc2c(C)cccc2C1=O	67.9 µM (inactive)	50.8 µM (inactive)		90.6 µM (inactive)	> 100 µM (inactive)	> 100 µM (inactive)	28.2 µM (inactive)	> 100 µM (inactive)	3.44 µM (inactive)		88.7 µM (inactive)	> 100 µM (inactive)	> 100 µM (inactive)	> 100 µM (inactive)	3.1 µM (inactive)		> 100 µM (inactive)	> 100 µM (inactive)	> 100 µM (inactive)	> 100 µM (inactive)
COc1ccc(N2C(=O)C3c4[nH]c5ccc(Br)cc5c4C4CCC(C(C)(C)C)CC4C3C2=O)cc1 (stereo not drawn)	> 100 µM (inactive)		> 100 µM (inactive)	> 100 µM (inactive)	> 100 µM (inactive)	> 100 µM (inactive)	> 100 µM (inactive)	> 100 µM (inactive)	> 100 µM (inactive)	94.2 µM (inactive)	> 100 µM (inactive)	> 100 µM (inactive)	> 100 µM (inactive)	> 100 µM (inactive)	> 100 µM (inactive)	> 100 µM (inactive)	> 100 µM (inactive)	> 100 µM (inactive)	82 µM (inactive)	> 100 µM (inactive)
COc1cccc(/C=C2\S/C(=N/Nc3nc(C)c(C)s3)NC2=O)c1O	> 100 µM (inactive)	19 µM (inactive)		> 100 µM (inactive)	> 100 µM (inactive)	> 100 µM (inactive)	> 100 µM (inactive)	> 100 µM (inactive)		> 100 µM (inactive)	> 100 µM (inactive)	> 100 µM (inactive)	56.1 µM (inactive)	> 100 µM (inactive)	> 100 µM (inactive)		> 100 µM (inactive)	> 100 µM (inactive)	> 100 µM (inactive)	
C/C1=C\[C@H](C)C[C@H](C)OC(=O)[C@H](C)NC(=O)[C@@H](Cc2ccc(O)c(Br)c2)N(C)C(=O)[C@H](C)NC(=O)[C@@H](C)C1	0.00701 µM (active)	0.282 µM (active)	0.0836 µM (active)	0.00991 µM (active)	0.731 µM (active)	0.0646 µM (active)	0.132 µM (active)	10.7 µM (inactive)	0.0295 µM (active)	0.118 µM (active)	0.00752 µM (active)	0.00385 µM (active)	0.00447 µM (active)	0.401 µM (active)	0.0927 µM (active)		0.0578 µM (active)	0.0631 µM (active)	0.0211 µM (active)	0.0149 µM (active)
CCOC(=O)/C(C#N)=C/c1ccc2c(-c3c(OCC)ccc4cc(/C=C(\C#N)C(=O)OCC)ccc34)c(OCC)ccc2c1	> 100 µM (inactive)	> 100 µM (inactive)	> 100 µM (inactive)	> 100 µM (inactive)	> 100 µM (inactive)	> 100 µM (inactive)	> 100 µM (inactive)	> 100 µM (inactive)	> 100 µM (inactive)	15.7 µM (inactive)	> 100 µM (inactive)	> 100 µM (inactive)	> 100 µM (inactive)	> 100 µM (inactive)	> 100 µM (inactive)		> 100 µM (inactive)	> 100 µM (inactive)	18.5 µM (inactive)	> 100 µM (inactive)
Cc1cccc(NC(=S)Nc2ccccc2Cl)n1	59.3 µM (inactive)	29 µM (inactive)	> 100 µM (inactive)	33.6 µM (inactive)	25.8 µM (inactive)	47.6 µM (inactive)	59.7 µM (inactive)	81.7 µM (inactive)	> 100 µM (inactive)	> 100 µM (inactive)	34.3 µM (inactive)	> 100 µM (inactive)	> 100 µM (inactive)	51.8 µM (inactive)	22.2 µM (inactive)	> 100 µM (inactive)	32 µM (inactive)	24.4 µM (inactive)		
CN(C)c1ccc(/N=N/c2ccccn2)cc1	28.8 µM (inactive)	11.2 µM (inactive)	4.61 µM (inactive)	4.66 µM (inactive)	43.1 µM (inactive)	19.8 µM (inactive)	81.3 µM (inactive)	> 100 µM (inactive)	11.3 µM (inactive)	9.82 µM (inactive)	49 µM (inactive)	17.5 µM (inactive)	4.26 µM (inactive)	41.5 µM (inactive)	3.89 µM (inactive)		37 µM (inactive)	36.2 µM (inactive)	20.8 µM (inactive)	38.7 µM (inactive)
O=C(CNc1ccccc1C(=O)O)Nn1cnc2ccc(S(=O)(=O)Nc3ccccc3C(=O)O)cc2c1=O	> 100 µM (inactive)		> 100 µM (inactive)	> 100 µM (inactive)	> 100 µM (inactive)	> 100 µM (inactive)	> 100 µM (inactive)	> 100 µM (inactive)	> 100 µM (inactive)	> 100 µM (inactive)	> 100 µM (inactive)	> 100 µM (inactive)	> 100 µM (inactive)	> 100 µM (inactive)	> 100 µM (inactive)	> 100 µM (inactive)	> 100 µM (inactive)	> 100 µM (inactive)	> 100 µM (inactive)	> 100 µM (inactive)
CC(C)C(C/C=C1\CC(CO)(COC(=O)C(C)(C)C)OC1=O)C(C)C (stereo not drawn)	5.57 µM (inactive)	15.1 µM (inactive)	0.942 µM (active)	10.7 µM (inactive)	12.7 µM (inactive)	4.42 µM (inactive)	11.5 µM (inactive)	10.5 µM (inactive)		13.9 µM (inactive)	2.65 µM (inactive)	4.48 µM (inactive)		5.69 µM (inactive)	16 µM (inactive)	11.5 µM (inactive)	4.06 µM (inactive)	16.3 µM (inactive)	5.24 µM (inactive)	14.1 µM (inactive)
CS(=O)(=O)O.[Ag]	20.2 µM (inactive)	2.15 µM (inactive)	2.23 µM (inactive)	16.3 µM (inactive)	29 µM (inactive)	10.3 µM (inactive)	20.8 µM (inactive)	19.3 µM (inactive)	2.49 µM (inactive)	3.17 µM (inactive)	16.3 µM (inactive)	3.01 µM (inactive)	2.79 µM (inactive)	19.1 µM (inactive)	10.2 µM (inactive)		34.2 µM (inactive)	2.33 µM (inactive)	21.3 µM (inactive)	1.92 µM (inactive)
CCCOc1ccc2sc(NC(=O)c3cc([N+](=O)[O-])cc([N+](=O)[O-])c3)nc2c1	50.4 µM (inactive)	53.2 µM (inactive)	65.5 µM (inactive)	32.4 µM (inactive)	26.8 µM (inactive)	24.1 µM (inactive)	47.8 µM (inactive)	> 100 µM (inactive)	31.8 µM (inactive)	50.4 µM (inactive)	52.2 µM (inactive)	31 µM (inactive)	67.3 µM (inactive)	42.1 µM (inactive)			35.6 µM (inactive)	18.8 µM (inactive)	35 µM (inactive)	
